Source: US7998972B2, “1H-imidazo[4,5-c]quinoline derivatives in the treatment of protein kinase dependent diseases” (Novartis AG, priority 2002, dated 2011)
pIC50: −log10 of the molar value.

Columns and labels:
c-Met = target: T1, c-Met (Homo sapiens, UniProt P08581); test: Inhibition of c-Met kinase (33P-ATP filter assay); type: biochemical; conditions: GST-c-Met cytoplasmic domain, poly(EY) substrate; read-out: IC50 range class, inhibition of c-Met
T1 construct: c-Met cytoplasmic domain (amino acids 969 to C-terminus); made in house; host or cells: baculovirus / Sf9 cells
T1 sequence (P08581 969-1390 limits assumed): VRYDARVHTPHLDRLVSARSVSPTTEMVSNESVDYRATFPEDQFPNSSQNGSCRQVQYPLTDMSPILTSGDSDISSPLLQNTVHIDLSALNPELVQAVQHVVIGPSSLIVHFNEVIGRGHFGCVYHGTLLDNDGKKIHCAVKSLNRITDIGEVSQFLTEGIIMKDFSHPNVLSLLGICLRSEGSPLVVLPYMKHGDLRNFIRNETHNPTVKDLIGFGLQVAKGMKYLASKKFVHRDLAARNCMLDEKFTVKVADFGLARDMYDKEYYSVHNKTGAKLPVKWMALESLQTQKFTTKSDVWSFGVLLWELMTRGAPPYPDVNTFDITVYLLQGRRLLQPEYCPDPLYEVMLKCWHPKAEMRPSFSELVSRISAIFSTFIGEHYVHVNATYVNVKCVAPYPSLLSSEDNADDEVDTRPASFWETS
Source text: Compounds of the formula I, for example, are able to inhibit c-Met kinase as mentioned already in the introduction. Using the sequence disclosed by Chan et al. (see Chan, A M-L, King H W S, Tempest P R, Deakin E A, Cooper C S, Brookes P. Primary structure of the met protein tyrosine kinase domain. Oncogene 1987; 12:229-233), a construct with this sequence, after hooking to a GST tag, was cloned into baculovirus and expressed in Sf9 cells. After partial purification by affinity chromatography on GST agarose resulting in a >90% pure preparation (SDS-PAGE), the kinase activity of this construct is used for inhibition assays using the compounds of formula I. The quality of the purified kinase preparations is highly reproducible: 9 batches of c-Met gives an average specific activity of 32.3±5.7 nmol/mg·min.
For inhibition studies, the following experimental protocol is used:
In vitro protein kinase assays are performed in 96-well plates. The amount of enzyme used in kinase assays and the incubation time for the kinase reaction are adjusted so that maximally 25% (in routine experiments <10%) of the substrate ATP are consumed.
Test compounds of the formula I are first dissolved in DMSO at a concentration of 1-10 mM (stock solution) and then further diluted with water/3% DMSO as required so that the final DMSO concentration in the assay is 1%.
The assay components are mixed in the following order: • 10 μl 3×compound (in 3% DMSO) • 10 μl 3×assay mix (MgCl2/MnCl2/ATP/^33P-ATP/poly(EY)) • 10 μl 3×enzyme dilution
Assays are incubated for 15 min (in special cases up to 60 min) at ambient temperature, reactions terminated by addition of 10 μl 0.25 M EDTA pH 7, then 20 μl transferred to a Millipore Immobilon^P membrane (previously soaked for 5 min with methanol, rinsed with water, then soaked for 5 min with 0.5% H3PO4 and mounted on vacuum manifold) with disconnected vacuum source. After spotting all samples, vacuum is connected and each well rinsed with 200 μl 0.5% H3PO4. Membranes are removed and washed 4× on shaker with 0.5% H3PO4, once with methanol. Membranes are counted after drying at ambient temperature, mounting in Packard TopCount 96-well frame, and addition of 10 μl/well of the scintillator Microscint™ (Packard).
IC50 values are calculated by logarithmic regression analysis of the percentage inhibition of each compound at 4 concentrations (usually 3- or 10-fold dilution series starting at 10 μM). In each experiment, the actual inhibition by reference compound is used for normalization of IC50 values to the basis of an average value of the reference inhibitor: Normalized IC50=measured IC50·average ref. IC50/measured ref. IC50 Example: • Reference inhibitor in experiment 0.4 μM, average 0.3 μM • Test compound in experiment 1.0 μM, normalization: 1.0·0.3/0.4=0.75 μM
For example, staurosporine or a synthetic staurosporine derivative are used as reference compounds.

Kdr = target: T2, Kdr (Homo sapiens, UniProt P35968); test: Inhibition of KDR protein tyrosine kinase in vitro; type: biochemical; conditions: GST-fused KDR kinase domain, polyGluTyr(4:1), 8 μM ATP; read-out: IC50 range class, inhibition of Kdr in vitro
T2 construct: The kinase domain of KDR is expressed as GST-fusion protein using the baculovirus system; made in house
T2 sequence (P35968 834-1162 limits assumed): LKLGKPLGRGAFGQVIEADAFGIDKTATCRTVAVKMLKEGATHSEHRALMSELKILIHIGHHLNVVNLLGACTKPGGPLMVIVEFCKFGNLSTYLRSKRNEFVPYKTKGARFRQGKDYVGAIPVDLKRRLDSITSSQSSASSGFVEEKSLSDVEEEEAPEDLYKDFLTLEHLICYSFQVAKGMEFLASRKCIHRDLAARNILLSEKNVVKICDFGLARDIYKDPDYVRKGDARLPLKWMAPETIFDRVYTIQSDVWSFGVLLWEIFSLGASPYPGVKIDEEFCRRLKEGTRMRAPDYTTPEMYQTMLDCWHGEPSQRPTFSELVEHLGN
Procedure: Inhibition of the enzyme activity of KDR protein tyrosine kinase can be determined as follows: The kinase domain of KDR is expressed as GST-fusion protein using the baculovirus system. The in vitro kinase assay is performed in 96-well plates using the recombinant GST-fused kinase domains expressed in baculovirus and purified over glutathione-Sepharose. ^33P-ATP (Amersham) is used as the phosphate donor, and the polyGluTyr(4:1) peptide (Sigma) is used as acceptor. The buffer is composed as follows: 29 mM Tris-HCl, pH 7.5; 10 mM MgCl2, 1 μM MnCl2, 8 μM ATP, 0.2 μCi ^33P-ATP, 8 μg/ml polyGluTyr. The reaction os carried out in a volume of 30 μl for 10 min at room temperature in the presence of either 1% DMSO or the test compound of formula I at the required concentration in 1% DMSO […]. The reaction is stopped by the addition of ethylenediaminetetraacetic acid to a final concentration of 60 mM. The assay mixture is then transferred onto a Immobilon-PVF membrane (Millipore), which is subsequently washed four times with 0.05% H3PO4 and once with ethanol. After drying, […] of Microscint Cocktail (Packard) is added and scintillation counting is performed (Hewlett-Packard Top Count). IC50 values are calculated by linear regression analysis of the percentage inhibition of each test compound in duplicate, at three concentrations (usually 0.01, 0.1 and 1 μM or 0.1, 1 and 10 μM).

CDK1 = test: Inhibition of CDK1 (p34cdc2/cyclin Bcdc13 kinase, histone H1 substrate); type: biochemical, starfish; conditions: read-out: IC50 range class, inhibition of CDK1 in vitro
Procedure: Starfish oocytes are induced into the M phase with 10 μM 1-methyl-adenine, frozen in liquid nitrogen and stored at −80° C. The ooctyes are homogenized and centrifuged, as described in D. Arlon et al., Cell 55, 371-378 (1988) and V. Rialet und L. Meijer, Anticancer Res. 11, 1581-1590 (1991), as required. For purification of the p34^cdc2/cyclin B^cdc13 kinase, the supernatant of the oocytes is introduced onto p9^CKShs Sepharose grains produced from recombinant human protein p9^CKShs, as described in L. Azzi et al., Eur. J. Biochem. 203, 353-360 (1992). After 30 minutes at 4° C. under constant rotation, the grains are washed thoroughly and the active p34^cdc2/cyclin B^cdc13 kinase is eluted with free protein p9^CKShs (3 mg/ml). The kinase eluted is tested as described in L. Meijer et al., EMBO J. 8, 2275-2282 (1989) and EMBO J. 10, 1545-1554 (1991), using histone H1 as the substrate. In this test, the compounds of the formula I and their pharmaceutically acceptable salts have an inhibiting concentration IC50 [μmol/l] of 0.01 to 10, usually of 0.05 to 1.

Row | melting point [°C] | pIC50 (c-Met) | pIC50 (Kdr) | pIC50 (CDK1) | Structure (SMILES)
1 | 242 to 244 | ≥ 6.30 | – | – | N#Cc1nc2cnc3ccc(Cl)cc3c2n1-c1ccccc1Cl [Example 84, 8-Chloro-1-(2-chloro-phenyl)-1H-imidazo[4,5-c]quinoline-2-carbonitrile]
2 | – | 6.00 to 6.30 | – | – | O=c1[nH]c2cnc3ccc(Cl)cc3c2n1-c1ccccc1Cl [Example 92, 8-Chloro-1-(2-chloro-phenyl)-1,3-dihydro-imidazo[4,5-c]quinolin-2-one]
3 | – | 6.00 to 6.30 | ≥ 6.30 | ≥ 6.30 | CCn1c(=O)n(-c2ccccc2Cl)c2c3cc(Cl)ccc3ncc21 [Example 108, 8-Chloro-1-(2-chloro-phenyl)-3-ethyl-1,3-dihydro-imidazo[4,5-c]quinolin-2-one]
4 | – | ≥ 6.30 | – | – | O=c1n(Cc2ccoc2)c2cnc3ccc(Cl)cc3c2n1-c1ccccc1Cl [Example 133, 8-Chloro-1-(2-chloro-phenyl)-3-(3-furyl-methyl)-1,3-dihydro-imidazo[4,5-c]quinolin-2-one]
5 | – | ≥ 6.30 | 5.70 to 6.00 | 5.70 to 6.00 | CCn1c(=O)n(-c2ccccc2Cl)c2c3cc(Br)ccc3ncc21 [Example 113, 8-Bromo-1-(2-chloro-phenyl)-3-ethyl-1,3-dihydro-imidazo[4,5-c]quinolin-2-one]
6 | – | – | – | 6.00 to 6.30 | O=c1n(CC2CC2)c2cnc3ccc(Cl)cc3c2n1-c1ccccc1Cl [Example 128, 8-Chloro-1-(2-chloro-phenyl)-3-(cyclopropyl-methyl)-1,3-dihydro-imidazo[4,5-c]quinolin-2-one]
7 | – | 5.70 to 6.00 | – | – | O=c1n(-c2cccc(Cl)c2)c2cnc3ccc(Br)cc3c2n1-c1ccccc1Cl [Example 102, 8-Bromo-1-(2-chloro-phenyl)-3-(3-chloro-phenyl)-1,3-dihydro-imidazo[4,5-c]quinolin-2-one]
8 | – | ≥ 6.30 | – | – | N=C(N)Cc1nc2cnc3ccc(Cl)cc3c2n1-c1ccccc1Cl [Example 88, 2-[8-Chloro-1-(2-chloro-phenyl)-1H-imidazo[4,5-c]quinolin-2-yl]-acetamidine]
9 | 261 to 263 | – | – | – | N=C(N)Cc1ccccc1-n1cnc2cnc3ccc(-c4ccccc4)cc3c21 [Example 70, 2-[2-(8-Phenyl-imidazo[4,5-c]quinolin-1-yl)-phenyl]-acetamidine]
10 | 156 to 158 | – | – | – | CCc1ccc2ncc3ncn(-c4ccccc4Cl)c3c2c1 [Example 49, 1-(2-Chloro-phenyl)-ethyl-1H-imidazo[4,5-c]quinoline]
11 | 161 to 162 | – | – | – | Fc1ccc(-n2cnc3cnc4ccccc4c32)cc1 [Example 1, 1-(4-Fluoro-phenyl)-1H-imidazo[4,5-c]quinoline]
12 | – | – | 5.70 to 6.00 | – | COc1ccc2ncc3ncn(-c4ccccc4)c3c2c1 [Example 48, 8-Methoxy-1-phenyl-1H-imidazo[4,5-]quinoline]
13 | – | 6.00 to 6.30 | ≥ 6.30 | ≥ 6.30 | CC(C)n1c(=O)n(-c2ccccc2Cl)c2c3cc(Br)ccc3ncc21 [Example 114, 8-Bromo-1-(2-chloro-phenyl)-3-isopropyl-1,3-dihydro-imidazo[4,5-c]quinolin-2-one]
14 | – | ≥ 6.30 | – | 5.70 to 6.00 | Cn1c(=O)n(-c2ccccc2Cl)c2c3cc(Br)ccc3ncc21 [Example 104, 8-Bromo-1-(2-chloro-phenyl)-3-methyl-1,3-dihydro-imidazo[4,5-c]quinolin-2-one]
15 | 249 to 251 | – | – | – | N/C(=N\O)c1ccccc1-n1cnc2cnc3ccc(-c4ccccc4)cc3c21 [Example 67, N-Hydroxy-2-(8-phenyl-imidazo[4,5-c]quinolin-1-yl)-benzamidine]
16 | 248 to 250 | – | – | – | N#Cc1nc2ccc(Cl)cc2c2c1ncn2-c1ccccc1Cl [Example 74, 8-Chloro-1-(2-chloro-phenyl)-1H-imidazo[4,5-c]quinoline-4-carbonitrile]
17 | – | ≥ 6.30 | 6.00 to 6.30 | – | O=c1[nH]c2cnc3ccc(Br)cc3c2n1-c1ccccc1Cl [Example 93, 8-Bromo-1-(2-chloro-phenyl)-1,3-dihydro-imidazo[4,5-c]quinolin-2-one]
18 | – | ≥ 6.30 | – | – | Clc1ccc2ncc3ncn(-c4ccccc4Cl)c3c2c1 [Example 25, 8-Chloro-1-(2-chloro-phenyl)-1H-imidazo[4,5-c]quinoline]
19 | – | 6.00 to 6.30 | – | – | N/C(Cc1nc2cnc3ccc(Cl)cc3c2n1-c1ccccc1Cl)=N/O [Example 87, 2-[8-Chloro-1-(2-chloro-phenyl)-1H-imidazo[4,5-c]quinolin-2-yl]-N-hydroxy-acetamidine]
20 | – | ≥ 6.30 | – | ≥ 6.30 | CCc1ccc2ncc3ncn(-c4ccccc4F)c3c2c1 [Example 50, 8-Ethyl-1-(2-fluoro-phenyl)-1H-imidazo[4,5-c]quinoline]
